Test results published in ChEMBL document CHEMBL1208678, “Synthesis of some new 4(3H)-quinazolinone-2-carboxaldehyde thiosemicarbazones and their metal complexes and a study on their anticonvulsant, analgesic, cytotoxic and antimicrobial activities - part-1” (Eur J Med Chem, 2010).
Values after ≈ are worked out from the molar mass of the structure shown. Active and inactive are the calls of the source. The rule behind the calls is not given here.

Assays:
[1] = test system: Rattus norvegicus; experiment: Anticonvulsant activity against pentylenetetrazole-induced seizure in Wistar rat assessed as shock latency time at 50 mg/kg, ip administered 45 mins before pentylenetetrazole challenge (reference value: 118 seconds); assay type: functional; conditions: route intraperitoneal
[2] = test system: Mus musculus; experiment: Acute toxicity in mouse assessed as mortality up to 1200 mg/kg, po; assay type: organism-based; design: dose 1200 mg/kg, route oral; conditions: in vivo
[3] = Cytotoxicity against mouse EAC cells assessed as cell death at 25 ug/ml after 2 hrs by Trypan blue exclusion method; assay type: functional, Ehrlich
[4] = test system: Mus musculus; experiment: Analgesic activity in Swiss albino mouse assessed as reaction time at 50 mg/kg, ip after 1 hr by hotplate method (reference value: 7.5 seconds); assay type: functional; conditions: route intraperitoneal
[5] = test system: Fusarium oxysporum; experiment: […] activity against Fusarium oxysporum after 24 hrs by twofold serial dilution method; assay type: functional
[6] = test system: Rattus norvegicus; experiment: Anticonvulsant activity in Wistar rat assessed as protection against pentylenetetrazole-induced seizure at 50 mg/kg, ip administered 45 mins before pentylenetetrazole challenge; assay type: functional, organism-based; design: dose 50 mg/kg
[7] = Cytotoxicity against mouse EAC cells assessed as cell death at 100 ug/ml after 2 hrs by Trypan blue exclusion method; assay type: functional, Ehrlich
[8] = Cytotoxicity against mouse EAC cells assessed as cell death at 50 ug/ml after 2 hrs by Trypan blue exclusion method; assay type: functional, Ehrlich
[9] = test system: Mus musculus; experiment: Analgesic activity in Swiss albino mouse assessed as reaction time at 50 mg/kg, ip after 0.5 hrs by hotplate method (reference value: 7.4 seconds); assay type: functional; conditions: route intraperitoneal
[10] = test system: Rattus norvegicus; experiment: Anticonvulsant activity against pentylenetetrazole-induced seizure in Wistar rat assessed as duration of seizure at 50 mg/kg, ip administered 45 mins before pentylenetetrazole challenge (reference value: 312 seconds); assay type: functional; conditions: route intraperitoneal
[11] = test system: Fusarium oxysporum; experiment: Antifungal activity against Fusarium oxysporum at 100 ug after 24 hrs by paper disc method; assay type: functional; conditions: for zone of inhibition at 100 µg/disc: read-out: IZ
[12] = test system: Aspergillus ochraceus; experiment: Antifungal activity against Aspergillus ochraceus Wilhelm at 100 ug after 24 hrs by paper disc method; assay type: functional; conditions: for zone of inhibition at 100 µg/disc: read-out: IZ
[13] = test system: Escherichia coli; experiment: Antibacterial activity against Escherichia coli ATCC 7839 at 100 ug after 24 hrs by paper disc method; assay type: functional; conditions: ATCC 7839, 24 h, read-out: IZ
[14] = test system: Bacillus subtilis; experiment: Antibacterial activity against Bacillus subtilis ATCC 6633 at 100 ug after 24 hrs by paper disc method; assay type: functional; conditions: ATCC 6633, 24 h, read-out: IZ
[15] = test system: Pseudomonas aeruginosa; experiment: Antibacterial activity against Pseudomonas aeruginosa ATCC 9027 at 100 ug after 24 hrs by paper disc method; assay type: functional; conditions: ATCC 9027, 24 h, read-out: IZ
[16] = test system: Escherichia coli; experiment: Antibacterial activity against Escherichia coli ATCC 7839 after 24 hrs by twofold serial dilution method; assay type: functional; conditions: ATCC 7839, 24 h
[17] = test system: Staphylococcus aureus; experiment: Antibacterial activity against Staphylococcus aureus ATCC 6538 at 100 ug after 24 hrs by paper disc method; assay type: functional; conditions: ATCC 6538, 24 h, read-out: IZ
[18] = test system: Bacillus subtilis; experiment: Antibacterial activity against Bacillus subtilis ATCC 6633 after 24 hrs by twofold serial dilution method; assay type: functional; conditions: ATCC 6633, 24 h
[19] = test system: Staphylococcus aureus; experiment: Antibacterial activity against Staphylococcus aureus ATCC 6538 after 24 hrs by twofold serial dilution method; assay type: functional; conditions: ATCC 6538, 24 h
[20] = test system: Rattus norvegicus; experiment: Anticonvulsant activity against pentylenetetrazole-induced seizure in Wistar rat assessed as shock latency time at 2 mg/kg, ip administered 45 mins before pentylenetetrazole challenge (reference value: 118 seconds); assay type: functional; conditions: route intraperitoneal
[21] = test system: Mus musculus; experiment: Analgesic activity in Swiss albino mouse assessed as reaction time at 2 mg/kg, ip after 1 hr by hotplate method (reference value: 7.5 seconds); assay type: functional; conditions: route intraperitoneal
[22] = test system: Rattus norvegicus; experiment: Anticonvulsant activity in Wistar rat assessed as protection against pentylenetetrazole-induced seizure at 2 mg/kg, ip administered 45 mins before pentylenetetrazole challenge; assay type: functional, organism-based; design: dose 2 mg/kg
[23] = test system: Mus musculus; experiment: Analgesic activity in Swiss albino mouse assessed as reaction time at 2 mg/kg, ip after 0.5 hrs by hotplate method (reference value: 7.4 seconds); assay type: functional; conditions: route intraperitoneal
[24] = test system: Rattus norvegicus; experiment: Anticonvulsant activity against pentylenetetrazole-induced seizure in Wistar rat assessed as duration of seizure at 2 mg/kg, ip administered 45 mins before pentylenetetrazole challenge (reference value: 312 seconds); assay type: functional; conditions: route intraperitoneal

Compound	Time [1] [s]	Activity [2]	Time [4] [s]	Activity [6]	Time [9] [s]	Time [10] [s]	zone of inhibition at 100 µg/disc [13] [mm]	zone of inhibition at 100 µg/disc [14] [mm]	zone of inhibition at 100 µg/disc [15] [mm]	zone of inhibition at 100 µg/disc [17] [mm]	further results
NC(=S)N/N=C/c1nc2ccc(I)cc2c(=O)n1-c1ccc(F)cc1	660	Non-toxic	27.2	inactive	19.2	760					Activity [3]: 0%; MIC [5]: 12.5 µg/mL (≈ 26.8 µM); Activity [7]: 40%; Activity [8]: 10%
O=c1c2cc(I)ccc2nc(/C=N/NC(=S)Nc2ccccc2)n1-c1ccccc1		Non-toxic	19.2		10.2						
CCNC(=S)N/N=C/c1nc2ccc(I)cc2c(=O)n1-c1ccc(F)cc1	280	Non-toxic		inactive		520					
NYSTATIN											inhibition zone (IZ) [11]: 20 mm; inhibition zone (IZ) [12]: 12 mm
CC[C@H]1OC(=O)[C@H](C)[C@@H](O[C@H]2C[C@@](C)(OC)[C@@H](O)[C@H](C)O2)[C@H](C)[C@@H](O[C@@H]2O[C@H](C)C[C@H](N(C)C)[C@H]2O)[C@](C)(O)C[C@@H](C)C(=O)[C@H](C)[C@@H](O)[C@]1(C)O [ERYTHROMYCIN]							15	30	16		
NC(=S)N/N=C/c1nc2ccc(I)cc2c(=O)n1-c1ccccc1		Non-toxic	26.6		18.6		0	9	0	8	zone of inhibition at 100 µg/disc [11]: 23 mm; MIC [16]: 100 µg/mL (≈ 223 µM); MIC [5]: 12.5 µg/mL (≈ 27.8 µM); MIC [18]: 100 µg/mL (≈ 223 µM); MIC [19]: 100 µg/mL (≈ 223 µM); zone of inhibition at 100 µg/disc [12]: 0 mm
CNC(=S)N/N=C/c1nc2ccc(I)cc2c(=O)n1-c1ccc(F)cc1	380	Non-toxic	19.2	inactive	11.1	580					Activity [3]: 0%; Activity [7]: 20%; Activity [8]: 0%
CN1C(=O)CN=C(c2ccccc2)c2cc(Cl)ccc21 [DIAZEPAM]											Time [20]: 3600 s; Time [21]: 65.9 s; Activity [22]: Active; Time [23]: 62.9 s; Time [24]: 0 s
O=c1c2cc(I)ccc2nc(/C=N/NC(=S)Nc2ccccc2)n1-c1ccc(F)cc1	120	Non-toxic	13.5	inactive	8	350	8	0	0	0	zone of inhibition at 100 µg/disc [11]: 25 mm; Activity [3]: 0%; Activity [7]: 0%; Activity [8]: 0%; zone of inhibition at 100 µg/disc [12]: 0 mm
CNC(=S)N/N=C/c1nc2ccc(I)cc2c(=O)n1-c1ccccc1		Non-toxic									MIC [5]: 6 µg/mL (≈ 13 µM)
CCn1cc(C(=O)O)c(=O)c2cc(F)c(N3CCNCC3)cc21 [NORFLOXACIN]							17	35	15	27	
CCNC(=S)N/N=C/c1nc2ccc(I)cc2c(=O)n1-c1ccccc1		Non-toxic					0	0	0	0	zone of inhibition at 100 µg/disc [11]: 15 mm; zone of inhibition at 100 µg/disc [12]: 0 mm
